Test results as given in PubChem BioAssay (NCI).
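1) Cells in 96-well plates. 2) Compound, 48 h, 5 concentrations. 3) Linear interpolation between surrounding doses. 4) Unreached endpoint = highest concentration. GI50 marks 50% less growth. TGI: concentration producing complete growth inhibition.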

Experiments:
Test in all cases: NCI-60 cell line screen, 48 h
SR leukemia = test system: SR leukemia
HS 578T breast = test system: HS 578T breast
SF-295 CNS = test system: SF-295 CNS
SK-MEL-5 melanoma = test system: SK-MEL-5 melanoma
RPMI-8226 leukemia = test system: RPMI-8226 leukemia
EKVX NSCLC = test system: EKVX NSCLC
OVCAR-5 ovarian = test system: OVCAR-5 ovarian
786-0 renal = test system: 786-0 renal
TK-10 renal = test system: TK-10 renal
SK-MEL-2 melanoma = test system: SK-MEL-2 melanoma
HOP-62 NSCLC = test system: HOP-62 NSCLC
T-47D breast = test system: T-47D breast
MOLT-4 leukemia = test system: MOLT-4 leukemia
MCF7 breast = test system: MCF7 breast
SK-MEL-28 melanoma = test system: SK-MEL-28 melanoma
A549 NSCLC = test system: A549 NSCLC
HCT-15 colon = test system: HCT-15 colon
KM12 colon = test system: KM12 colon
NCI-H226 lung = test system: NCI-H226 lung
SW-620 colon = test system: SW-620 colon
HL-60(TB) leukemia = test system: HL-60(TB) leukemia
M14 melanoma = test system: M14 melanoma
SK-OV-3 ovarian = test system: SK-OV-3 ovarian
NCI-H23 lung = test system: NCI-H23 lung
OVCAR-8 ovarian = test system: OVCAR-8 ovarian
OVCAR-4 ovarian = test system: OVCAR-4 ovarian
LOX IMVI melanoma = test system: LOX IMVI melanoma
COLO 205 colon = test system: COLO 205 colon
NCI-H522 lung = test system: NCI-H522 lung
U251 CNS = test system: U251 CNS
K-562 leukemia = test system: K-562 leukemia
OVCAR-3 ovarian = test system: OVCAR-3 ovarian
HT29 colon = test system: HT29 colon
MDA-MB-435 = test system: MDA-MB-435
SNB-19 CNS = test system: SNB-19 CNS
RXF 393 renal = test system: RXF 393 renal
A498 renal = test system: A498 renal
ACHN renal = test system: ACHN renal
SNB-75 CNS = test system: SNB-75 CNS
MDA-MB-231 breast = test system: MDA-MB-231 breast
NCI-H460 lung = test system: NCI-H460 lung
BT-549 breast = test system: BT-549 breast
IGROV1 ovarian = test system: IGROV1 ovarian
UACC-62 melanoma = test system: UACC-62 melanoma
NCI/ADR-RES ovarian = test system: NCI/ADR-RES ovarian
MDA-MB-468 breast = test system: MDA-MB-468 breast
DU-145 prostate = test system: DU-145 prostate
SF-268 CNS = test system: SF-268 CNS
HCC-2998 colon = test system: HCC-2998 colon
CCRF-CEM leukemia = test system: CCRF-CEM leukemia
PC-3 prostate = test system: PC-3 prostate
SF-539 CNS = test system: SF-539 CNS
HOP-92 NSCLC = test system: HOP-92 NSCLC
HCT-116 colon = test system: HCT-116 colon
CAKI-1 renal = test system: CAKI-1 renal
UACC-257 melanoma = test system: UACC-257 melanoma
SN12C renal = test system: SN12C renal
UO-31 renal = test system: UO-31 renal
MALME-3M melanoma = test system: MALME-3M melanoma

O=c1[nH]c2ccccc2cc1CSc1ccc(Nc2nccc(-c3ccc(C(F)(F)F)cc3)n2)cc1
GI50 (SR leukemia): > 100 µM | TGI (SR leukemia): > 100 µM | GI50 (HS 578T breast): 0.403 µM | TGI (HS 578T breast): 4.64 µM | GI50 (SF-295 CNS): 1.62 µM | TGI (SF-295 CNS): 5.72 µM | GI50 (SK-MEL-5 melanoma): 15.4 µM | TGI (SK-MEL-5 melanoma): 45.9 µM | GI50 (RPMI-8226 leukemia): 61.6 µM | TGI (RPMI-8226 leukemia): > 100 µM | GI50 (EKVX NSCLC): 3.5 µM | TGI (EKVX NSCLC): 40.5 µM | GI50 (OVCAR-5 ovarian): 30.6 µM | TGI (OVCAR-5 ovarian): > 100 µM | GI50 (786-0 renal): 1.53 µM | TGI (786-0 renal): 3.29 µM | GI50 (TK-10 renal): 1.6 µM | TGI (TK-10 renal): 3.97 µM | GI50 (SK-MEL-2 melanoma): 18.7 µM | TGI (SK-MEL-2 melanoma): 39.5 µM | GI50 (HOP-62 NSCLC): 1.81 µM | TGI (HOP-62 NSCLC): 4.45 µM | GI50 (T-47D breast): 1.84 µM | TGI (T-47D breast): 54.3 µM | GI50 (MOLT-4 leukemia): 4.83 µM | TGI (MOLT-4 leukemia): > 100 µM | GI50 (MCF7 breast): 4.55 µM | TGI (MCF7 breast): > 100 µM | GI50 (SK-MEL-28 melanoma): 20.6 µM | TGI (SK-MEL-28 melanoma): > 100 µM | GI50 (A549 NSCLC): 2.12 µM | TGI (A549 NSCLC): 10.1 µM | GI50 (HCT-15 colon): 2.27 µM | TGI (HCT-15 colon): 69.7 µM | GI50 (KM12 colon): 94.3 µM | TGI (KM12 colon): > 100 µM | GI50 (NCI-H226 lung): 1.52 µM | TGI (NCI-H226 lung): 3.8 µM | GI50 (SW-620 colon): 5.53 µM | TGI (SW-620 colon): > 100 µM | GI50 (HL-60(TB) leukemia): > 100 µM | TGI (HL-60(TB) leukemia): > 100 µM | GI50 (M14 melanoma): 16.8 µM | TGI (M14 melanoma): 61.3 µM | GI50 (SK-OV-3 ovarian): 15.6 µM | TGI (SK-OV-3 ovarian): 30.6 µM | GI50 (NCI-H23 lung): 4 µM | TGI (NCI-H23 lung): 18.8 µM | GI50 (OVCAR-8 ovarian): 1.94 µM | TGI (OVCAR-8 ovarian): 5.97 µM | GI50 (OVCAR-4 ovarian): 1.23 µM | TGI (OVCAR-4 ovarian): 3.95 µM | GI50 (LOX IMVI melanoma): 3.63 µM | TGI (LOX IMVI melanoma): 19.5 µM | GI50 (COLO 205 colon): 9.82 µM | TGI (COLO 205 colon): 74.1 µM | GI50 (NCI-H522 lung): 6.19 µM | TGI (NCI-H522 lung): 28.7 µM | GI50 (U251 CNS): 0.198 µM | TGI (U251 CNS): 2.61 µM | GI50 (K-562 leukemia): 13.9 µM | TGI (K-562 leukemia): > 100 µM | GI50 (OVCAR-3 ovarian): 1.38 µM | TGI (OVCAR-3 ovarian): 3.58 µM | GI50 (HT29 colon): 3.46 µM | TGI (HT29 colon): > 100 µM | GI50 (MDA-MB-435): 11.9 µM | TGI (MDA-MB-435): 55.4 µM | GI50 (SNB-19 CNS): 2.32 µM | TGI (SNB-19 CNS): 10.3 µM | GI50 (RXF 393 renal): 2.67 µM | TGI (RXF 393 renal): 13 µM | GI50 (A498 renal): 1.93 µM | TGI (A498 renal): 3.84 µM | GI50 (ACHN renal): 1.85 µM | TGI (ACHN renal): 10.8 µM | GI50 (SNB-75 CNS): 0.714 µM | TGI (SNB-75 CNS): 3.88 µM | GI50 (MDA-MB-231 breast): 1.66 µM | TGI (MDA-MB-231 breast): 9.04 µM | GI50 (NCI-H460 lung): 0.0643 µM | TGI (NCI-H460 lung): 1.53 µM | GI50 (BT-549 breast): 2.66 µM | TGI (BT-549 breast): 17.1 µM | GI50 (IGROV1 ovarian): 17 µM | TGI (IGROV1 ovarian): 43.6 µM | GI50 (UACC-62 melanoma): 15.4 µM | TGI (UACC-62 melanoma): 33 µM | GI50 (NCI/ADR-RES ovarian): 1.32 µM | TGI (NCI/ADR-RES ovarian): 6.21 µM | GI50 (MDA-MB-468 breast): 3.33 µM | TGI (MDA-MB-468 breast): 18.2 µM | GI50 (DU-145 prostate): 13.2 µM | TGI (DU-145 prostate): > 100 µM | GI50 (SF-268 CNS): 2.97 µM | TGI (SF-268 CNS): 20.9 µM | GI50 (HCC-2998 colon): 6.89 µM | TGI (HCC-2998 colon): > 100 µM | GI50 (CCRF-CEM leukemia): 3.51 µM | TGI (CCRF-CEM leukemia): > 100 µM | GI50 (PC-3 prostate): 6.77 µM | TGI (PC-3 prostate): 61.5 µM | GI50 (SF-539 CNS): 2.7 µM | TGI (SF-539 CNS): 10.9 µM | GI50 (HOP-92 NSCLC): 2.32 µM | TGI (HOP-92 NSCLC): 15.2 µM | GI50 (HCT-116 colon): 0.0885 µM | TGI (HCT-116 colon): 11.6 µM | GI50 (CAKI-1 renal): 1.66 µM | TGI (CAKI-1 renal): 7.13 µM | GI50 (UACC-257 melanoma): 29.2 µM | TGI (UACC-257 melanoma): > 100 µM | GI50 (SN12C renal): 16.7 µM | TGI (SN12C renal): 40.8 µM | GI50 (UO-31 renal): 4.82 µM | TGI (UO-31 renal): 19.6 µM | GI50 (MALME-3M melanoma): 6.51 µM | TGI (MALME-3M melanoma): 22.6 µM
